# Reference: the METLIN SMRT retention time set (Domingo-Almenara et al. 2019)
# Experiment: gradient 5% acetonitrile 3 min, to 50% in 2 min, to 85% in 15 min, held 3 min, 100 µL/min
# Details: column: Zorbax Extend-C18 2.1 x 50 mm; eluents: water / acetonitrile, 0.1% formic acid
# Method in brief: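 Pure standards were analyzed in mixtures of ~100 molecules using HPLC coupled to a quadrupole time-of-flight mass spectrometer, in both positive and negative ionization mode. Separation used a Zorbax Extend-C18 column (2.1 × 50 mm, 1.8 μm) at 100 μL/min, with water and acetonitrile each containing 0.1% formic acid. Dead and dwell volumes were 40 μL and 900 μL, and data were collected over 3 months. Retention time was read from computationally picked adduct peaks, each inspected manually.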
row,RP-LC retention time [s],SMILES
1,997,CCOC(=O)C(C)(C)Sc1nnc(N2CCN(c3ccccc3)CC2)s1
2,1000,Cc1cc(OCC(=O)NCc2ccco2)nc(-c2ccc(Cl)cc2)n1
3,1160,O=S(=O)(c1ccc2nc(N3CCN(c4ccccc4F)CC3)ccc2c1)N1CCCCC1
4,895,Cc1ccc(C)c(-c2cn3ccn(-c4ccc(F)cc4)c(=O)c3n2)c1
5,1330,O=C(NCCC1=CCCCC1)C1CCN(c2ncccc2-c2nc(-c3ccc(Cl)cc3)no2)CC1
6,823,Cc1ccc(C(=O)NC2CCN(c3ccccc3)C2=O)cc1F (configuration not stated)
7,868,CC(=O)N1c2ccc(S(=O)(=O)N3CCCCC3)cc2CC1C(=O)Nc1ccc(C)cc1C (configuration not stated)
8,828,CCc1cccc(C)c1Nc1c(-c2ccc(F)cc2)nc2nc(C)cc(C)n12
9,717,COCCNC(=O)c1ccc2c(c1)N(Cc1ccc(F)cc1)C(=O)CO2
10,723,Cc1cccc(NC(=O)N2CCC3(CC2)NC(=O)c2ccc(F)cc2N3C)c1
11,888,CS(=O)(=O)N1CCC(C(=O)NCc2ccccc2Cl)Oc2ccccc21 (configuration not stated)
12,756,O=C(NCCc1c[nH]c2ccc(F)cc12)c1ccc(F)cc1-n1cnnn1
13,671,O=C(CCS(=O)(=O)c1ccccc1)NCc1ccsc1
14,636,O=C(NCc1ccco1)N1CCN(Cc2nc3cccnc3n2-c2cccc(F)c2)CC1
15,587,COCc1nnc2n1CCC(NC(=O)C1CC=CC1)CC2 (configuration not stated)
16,685,CNC(=O)c1n[nH]c2c1CCCCCC2
17,794,O=C(c1cc(C2CC2)[nH]n1)N1CC(F)(F)C[C@H]1c1nc(C2CC2)no1
18,788,O=C(CN1C(=O)COc2ccc(C(=O)N3CCCCC3)cc21)N1CCc2ccccc2C1
19,832,COc1ccc(Cn2nnc(C(=O)NCC3CCCO3)c2-n2cccc2)cc1 (configuration not stated)
20,624,CCN(CC)C(=O)c1ccc2oc(CN3CCN(C(=O)NCC(C)C)CC3)nc2c1
21,616,COc1ccccc1NC(=O)Nc1c(C)nc2ccc(C)cn2c1=O
22,636,Cn1nc(C(=O)N2C[C@@H]3C[C@H](NC(=O)c4cccnc4)[C@H]2C3)c2ccccc21

row,RP-LC retention time [s],SMILES
1,963,O=C(Nc1cccc(Cl)c1)c1nnn(-c2ccc(F)cc2)c1-c1cccnc1
2,736,Cc1cc(C)cc(N2CCC(NC(=O)NC(C)C)C2=O)c1 (configuration not stated)
3,678,CCCCN1CCN(S(=O)(=O)c2ccc(-c3nnc(C4CCCC4)o3)o2)CC1
4,705,Cc1nc(NC(=O)c2ccc(F)cc2)nc2cc3c(cc12)OCO3
5,764,CCCS(=O)(=O)N1CCc2nc(N3CCN(C)CC3)sc2C1
6,755,COc1cccc(NC(=O)C2CCN(S(=O)(=O)c3ccc4c(c3)CCCC(=O)N4)CC2)c1
7,665,C[C@H](CCC(=O)NCCS(=O)(=O)O)[C@H]1CC[C@H]2[C@@H]3[C@H](O)C[C@@H]4C[C@H](O)CC[C@]4(C)[C@H]3C[C@H](O)[C@]12C
8,734,COc1cc(OC)cc(C(=O)N2CCC3(CC2)NC(=O)c2ccccc2N3C)c1
9,1080,CCc1nc2cc(-c3noc(-c4ccc(OC)c(OC)c4)n3)ccc2o1
10,1020,COc1cccc(-n2c(N3CCCC(C(=O)Nc4ccc(Cl)cc4)C3)nc3ccsc3c2=O)c1 (configuration not stated)
11,773,COc1ccc(Cn2nc3c(S(=O)(=O)N4CCOCC4)cccn3c2=O)cc1F
12,916,COc1ccc(NC(=O)c2cnc3c(c2)c(=O)n(C)c(=O)n3-c2ccccc2)cc1Cl
13,884,Cn1cc2c3c(cccc31)CN(C(=O)c1ccc(C#N)cc1)CC2
14,960,COc1ccc(S(=O)(=O)Cc2nc(-c3ccc(C)cc3)no2)cc1OC
15,969,CCC1Oc2ccc(S(=O)(=O)N3CCC(C(=O)Nc4ccc(F)c(Cl)c4)CC3)cc2NC1=O (configuration not stated)
16,1230,CCc1ccc(NC(=O)c2c(O)c3cccnc3n(-c3ccc(F)cc3)c2=O)cc1
17,768,CC(C)NC(=O)c1nn(-c2ccccc2F)nc1CO
18,705,CNC(=O)N1CCC(C2CCN(C(=O)c3ccc(Cl)s3)C2)CC1 (configuration not stated)
19,969,Cc1nc(NC(=O)c2ccc(OCc3nc(C4CC4)cs3)cc2)sc1C
20,1030,O=c1ccc(-c2ccc3c(c2)OCO3)nn1CCc1nc(-c2ccc(F)c(Br)c2)no1
21,934,O=C(Cc1cccs1)N1CCN(c2ccc(-c3noc(C4CC4)n3)cc2)CC1
22,624,CCCNC(=O)N1CCCCCC1CN1CCC(C)CC1 (configuration not stated)

row,RP-LC retention time [s],SMILES
1,712,COc1ccc(C(=O)N2CCc3ccc(CNC(=O)NCC4CCCO4)cc32)cc1 (configuration not stated)
2,774,CN1c2ccc(F)cc2C(=O)NC12CCN(C(=O)Cc1ccccc1Cl)CC2
3,662,COc1cc(C(=O)OC(C)CN2CCOCC2)cc(OC)c1OC (configuration not stated)
4,937,COC1C(=O)N(c2cccc(F)c2)C12CCN(S(=O)(=O)c1cccs1)CC2 (configuration not stated)
5,662,CCOc1ccc(S(=O)(=O)N2CCCC(C(=O)NCCO)C2)cc1 (configuration not stated)
6,904,CCc1ccc(N2C(=O)CN(CCc3ccccc3F)[C@H]3CS(=O)(=O)C[C@H]32)cc1
7,834,COc1ccc(NC(=O)Cn2cnc3nc(N4CCC(C)CC4)ncc3c2=O)cc1Cl
8,604,CCCNC(=O)N1CCCCCC1CN1CCC(OC)CC1 (configuration not stated)
9,988,CCOC(=O)c1cc(S(=O)(=O)N2CCCC2C(=O)Nc2ccc(C)c(F)c2)cn1C (configuration not stated)
10,866,Cc1[nH]c(C(=O)NCc2ccccc2Cl)c(C)c1S(=O)(=O)N1CCCC1
11,727,Cc1ccc(C2CC(=O)c3cnc(N4CCN(c5ccccn5)CC4)nc3C2)cc1 (configuration not stated)
12,712,Cc1ccn2cc(-c3ccc(NS(=O)(=O)c4cc(C)c(C)cc4C)cc3)nc2n1
13,769,CCc1ccc(NC(=O)N2CCC(c3nc(C(=O)N(C)C)c(C)o3)CC2)cc1
14,890,COc1ccc(NC(=O)CSc2ccc(-c3cccs3)nn2)c(OC)c1
15,653,O=C1COc2cc(S(=O)(=O)N3CCC(C(=O)NCC4CCCO4)CC3)c(Cl)cc2N1 (configuration not stated)
16,632,CS(=O)(=O)c1ccc(Cc2nnc(NC(=O)C3CCCC3)o2)cc1
17,997,Cc1cccc(-c2noc(C3CCCN3C(=O)c3ccc4c(c3)OCO4)n2)c1 (configuration not stated)
18,894,COc1ccc(-c2cc3nn(CC(=O)N4CCC(C)CC4)c(=O)n3c(C)n2)cc1
19,846,O=C(Cn1nc(N2CCOCC2)c2ccccc2c1=O)Nc1cccc(Cl)c1
20,593,CCN1CCN(C(=O)C2CCN(c3nnc(-c4ccc(OC)cc4)o3)CC2)CC1
21,780,CCOC(=O)c1c(C)[nH]c(C(=O)N2CCC(CC(=O)NCc3ccc(F)cc3)CC2)c1C
22,741,CC(C)c1noc(-c2ccc(-n3cnc(C(=O)NC4CCCCC4)c3)nc2)n1

row,RP-LC retention time [s],SMILES
1,622,CC(C)N1CCN(S(=O)(=O)c2cc(-c3nnc(C4CCC4)o3)co2)CC1
2,603,CCN(CCNC(=O)C12CCCC=C1N(Cc1ccccc1)C(=O)CC2)Cc1ccccc1 (configuration not stated)
3,1180,CC(C)Cc1nc(N2CCN(C(=O)c3ccco3)CC2)c(C#N)c2c1COC(C)(C)C2
4,928,Cc1ccc(-c2cn3c(CC(=O)NCCc4ccccc4)csc3n2)cc1C
5,748,O=C(CCC1CCCN(S(=O)(=O)c2ccccc2F)C1)NC1CCS(=O)(=O)C1 (configuration not stated)
6,762,Cc1ccc(NC(=O)N2CCc3c(c(-c4nc(C)no4)nn3C)C2)c(C)c1
7,985,COc1ccc(S(=O)(=O)N2CCCC(C(=O)Nc3ccccc3F)C2)cc1Cl (configuration not stated)
8,581,Cc1nc(-c2cccc(NC(=O)c3ccc(-n4ccnc4C)nn3)c2)cs1
9,723,CS(=O)(=O)NCCS(=O)(=O)N1CCN(c2ccccc2F)CC1
10,764,O=C(Nc1ccc(F)c(Cl)c1)C1CCN(C(=O)NCc2cccs2)CC1
11,851,Cc1ccccc1CNC1=NCCNC12CCN(S(=O)(=O)c1ccc3c(c1)CCCC3)CC2
12,685,Cn1c(=O)c(=O)n(C)c2cc(N3CCCC3)c(NC(=O)Cc3ccc(Cl)cc3)cc21
13,715,CCOC(=O)c1nc(NCCCN2CCN(c3cc(C)ccc3C)CC2)c2ccccc2n1
14,733,CCCc1noc(-c2cccnc2N2CCCN(Cc3cc(F)cc(F)c3)CC2)n1
15,779,Cc1ccc(-n2nc3c(N4CCCC(C(=O)NCc5ccccc5C)C4)nnc(C)c3c2C)cc1 (configuration not stated)
16,919,Cc1cccc(C)c1Nc1c(-c2ccc(Cl)cc2)nc2ncccn12
17,784,Cc1nc(N2CCCC2)c2c(C(=O)Nc3cccc(F)c3)c(C)oc2n1
18,878,COc1ccc(-c2nnc(-c3ccc(C)c(S(=O)(=O)N(C)C)c3)o2)cc1OC
19,627,Cn1ccc2cc(S(=O)(=O)N3CCCC(C(=O)NCCCN4CCOCC4)C3)ccc21 (configuration not stated)
20,633,Cc1cnc(-c2ccncc2)n1CCNS(=O)(=O)c1ccc2c(c1)CCC2

row,SMILES,RP-LC retention time [s]
1,CCn1cc(C(=O)Nc2ccccc2F)c2cccnc21,812
